# Reference: patent US10945992B1, “Dosage forms of rofecoxib and related methods” (Tremeau Pharmaceuticals, Inc., priority 2019, dated 2021)
# Like-named read-outs stand apart in the source and are kept apart here.
# Assay: TRM-201-PK-102 single-dose four-period crossover pharmacokinetic study, fasted healthy subjects
# Format: in vivo, human
# Conditions: human, plasma, oral
# Procedure: A Single-Dose, Open-Label, Phase 1, Four-Period Crossover Pharmacokinetic Study of TRM-201 (Rofecoxib) 12.5 mg, 17.5 mg, 20 mg and 25 mg Administered to Healthy Subjects in a Fasting State, with Comparison to Historical Pharmacokinetic Parameters of Previously Marketed Rofecoxib (“TRM-201-PK-102” or “102 PK Study”)
# This was a single-center, open-label four-period crossover PK study of TRM-201. The study included 24 subjects who received TRM-201 as a single dose of 12.5 mg, 17.5 mg, 20 mg and 25 mg to assess the PK of TRM-201 in healthy volunteers under fasted conditions. Subjects were randomized to one of four treatment sequences. The PK data from the current study along with the data from the TRM-201-PK-101 study (Example 4) was used to compare to historical pharmacokinetic parameters of previously marketed rofecoxib, all in a fasted state.
# In each of the four dosing periods, subjects fasted overnight for at least 10 hours before study drug dosing. While fasting, subjects had nothing to eat and only water to drink. Water was permitted as desired, except for the period between 1 hour before and 1 hour after study drug dosing (excepting as permitted for dosing). After the 2-hour PK blood sample, subjects were allowed one 250-mL cup of clear apple juice. After the 4-hour PK blood sample, subjects were served a light lunch. Following the light lunch, subjects received standardized meals according to the clinic's standard procedures that were scheduled at consistent times and at least 15 minutes before or 15 minutes after PK sampling time points. Blood was withdrawn for PK analysis at predefined time points. For each dosing period the last time point was 120 hours after dosing with study drug (Day 6). After the 120 hour PK sample, the EOP procedures was completed, subjects remained in-clinic for the in-between dose period day (Days 7, 14, and 21) and began the next dosing period starting with an overnight fast for at least 10 hours on Day −1 of the subsequent dosing period. Pharmacokinetic and safety endpoints were evaluated.
# The study drug, TRM-201, was an immediate-release tablet that contained 12.5 mg rofecoxib, 17.5 mg rofecoxib, 20 mg rofecoxib or 25 mg rofecoxib. The 7.25-mm diameter tablets were off-white, round, and uncoated with no markings. TRM-201 tablets were for oral administration.
# For each sample, approximately 3 mL of blood were drawn. The samples were obtained by a straight stick or via an in-dwelling intravenous (IV) catheter in a forearm vein. Additional details for the collection, processing, storage, and shipping of PK samples were provided in the study manual.
# Pharmacokinetic samples will be analyzed using a validated assay for rofecoxib in human plasma. Assay results and validation details will be provided in a separate bioanalytical report. The following PK parameters for rofecoxib will be calculated as primary endpoints using standard noncompartmental methods: AUC0-∞ and Cmax. Secondary endpoints include Tmax, and t1/2. Additional PK parameters (e.g., CL/F, and Vd/F) will also be calculated using standard noncompartmental methods.
# Individual plasma concentrations for rofecoxib and PK sampling time deviation data will be presented in a data listing. Plasma concentration data will be summarized by time point using the following descriptive statistics: number of subjects, arithmetic mean, SD, coefficient of variation (CV), geometric mean, natural-log-scale SD, geometric CV, median, minimum, and maximum. Individual plasma concentration versus actual time profiles were presented on both linear and semilogarithmic scales. Additionally, arithmetic mean concentration versus scheduled time profiles were presented on linear scales and geometric means on semilogarithmic scales.
# The PK parameters of rofecoxib were analyzed based on the actual sampling times. […]
# [1] = 20 mg, read-out: arithmetic mean plasma concentration
# [2] = 20 mg, read-out: geometric mean plasma concentration
smiles,measurement,setting,value
"CS(=O)(=O)c1ccc(C2=C(c3ccccc3)C(=O)OC2)cc1 [TRM-201, 4-[4-(methylsulfonyl)phenyl]-3-phenyl-2(5H)-furanone]",AUC(0-inf),"20 mg, 102 study only, read-out: arithmetic mean AUC0-∞",3750 ng·h/mL
same,Cmax,"20 mg, 102 study only, read-out: arithmetic mean Cmax",277 ng/mL
same,AUC(0-inf),"20 mg, 102 study only, read-out: geometric mean AUC0-∞",3550 ng·h/mL
same,Cmax,"20 mg, 102 study only, read-out: geometric mean Cmax",259 ng/mL
same,AUC(0-inf),"20 mg, 102 study, 18-40 years, read-out: arithmetic mean AUC0-∞",3580 ng·h/mL
same,Cmax,"20 mg, 102 study, 18-40 years, read-out: arithmetic mean Cmax",308 ng/mL
same,AUC(0-inf),"20 mg, 102 study, 18-40 years, read-out: geometric mean AUC0-∞",3420 ng·h/mL
same,Cmax,"20 mg, 102 study, 18-40 years, read-out: geometric mean Cmax",289 ng/mL
same,AUC(0-inf),"20 mg, 102 study, 41-52 years, read-out: arithmetic mean AUC0-∞",3730 ng·h/mL
same,Cmax,"20 mg, 102 study, 41-52 years, read-out: arithmetic mean Cmax",262 ng/mL
same,AUC(0-inf),"20 mg, 102 study, 41-52 years, read-out: geometric mean AUC0-∞",3360 ng·h/mL
same,Cmax,"20 mg, 102 study, 41-52 years, read-out: geometric mean Cmax",242 ng/mL
same,AUC(0-inf),"20 mg, 102 study, 53-60 years, read-out: arithmetic mean AUC0-∞",3940 ng·h/mL
same,Cmax,"20 mg, 102 study, 53-60 years, read-out: arithmetic mean Cmax",260 ng/mL
same,AUC(0-inf),"20 mg, 102 study, 53-60 years, read-out: geometric mean AUC0-∞",3880 ng·h/mL
same,Cmax,"20 mg, 102 study, 53-60 years, read-out: geometric mean Cmax",249 ng/mL
same,AUC(0-inf),"20 mg, 102 study, Black or African-American subjects, read-out: arithmetic mean AUC0-∞",3380 ng·h/mL
same,Cmax,"20 mg, 102 study, Black or African-American subjects, read-out: arithmetic mean Cmax",298 ng/mL
same,AUC(0-inf),"20 mg, 102 study, Black or African-American subjects, read-out: geometric mean AUC0-∞",3300 ng·h/mL
same,Cmax,"20 mg, 102 study, Black or African-American subjects, read-out: geometric mean Cmax",295 ng/mL
same,AUC(0-inf),"20 mg, 102 study, Hispanic or Latino subjects, read-out: arithmetic mean AUC0-∞",3840 ng·h/mL
same,Cmax,"20 mg, 102 study, Hispanic or Latino subjects, read-out: arithmetic mean Cmax",281 ng/mL
same,AUC(0-inf),"20 mg, 102 study, Hispanic or Latino subjects, read-out: geometric mean AUC0-∞",3630 ng·h/mL
same,Cmax,"20 mg, 102 study, Hispanic or Latino subjects, read-out: geometric mean Cmax",258 ng/mL
same,AUC(0-inf),"20 mg, 102 study, White subjects, read-out: arithmetic mean AUC0-∞",3850 ng·h/mL
same,Cmax,"20 mg, 102 study, White subjects, read-out: arithmetic mean Cmax",271 ng/mL
same,AUC(0-inf),"20 mg, 102 study, White subjects, read-out: geometric mean AUC0-∞",3610 ng·h/mL
same,Cmax,"20 mg, 102 study, White subjects, read-out: geometric mean Cmax",250 ng/mL
same,AUC(0-inf),"20 mg, 102 study, body weight 47-70 kg, read-out: arithmetic mean AUC0-∞",3650 ng·h/mL
same,Cmax,"20 mg, 102 study, body weight 47-70 kg, read-out: arithmetic mean Cmax",336 ng/mL
same,AUC(0-inf),"20 mg, 102 study, body weight 47-70 kg, read-out: geometric mean AUC0-∞",3340 ng·h/mL
same,Cmax,"20 mg, 102 study, body weight 47-70 kg, read-out: geometric mean Cmax",307 ng/mL
same,AUC(0-inf),"20 mg, 102 study, body weight 70.1-77 kg, read-out: arithmetic mean AUC0-∞",4500 ng·h/mL
same,Cmax,"20 mg, 102 study, body weight 70.1-77 kg, read-out: arithmetic mean Cmax",259 ng/mL
same,AUC(0-inf),"20 mg, 102 study, body weight 70.1-77 kg, read-out: geometric mean AUC0-∞",4400 ng·h/mL
same,Cmax,"20 mg, 102 study, body weight 70.1-77 kg, read-out: geometric mean Cmax",248 ng/mL
same,AUC(0-inf),"20 mg, 102 study, body weight 77.1-90 kg, read-out: arithmetic mean AUC0-∞",3250 ng·h/mL
same,Cmax,"20 mg, 102 study, body weight 77.1-90 kg, read-out: arithmetic mean Cmax",238 ng/mL
same,AUC(0-inf),"20 mg, 102 study, body weight 77.1-90 kg, read-out: geometric mean AUC0-∞",3170 ng·h/mL
same,Cmax,"20 mg, 102 study, body weight 77.1-90 kg, read-out: geometric mean Cmax",231 ng/mL
same,AUC(0-inf),"20 mg, 102 study, non-Hispanic or non-Latino subjects, read-out: arithmetic mean AUC0-∞",3660 ng·h/mL
same,Cmax,"20 mg, 102 study, non-Hispanic or non-Latino subjects, read-out: arithmetic mean Cmax",272 ng/mL
same,AUC(0-inf),"20 mg, 102 study, non-Hispanic or non-Latino subjects, read-out: geometric mean AUC0-∞",3470 ng·h/mL
same,Cmax,"20 mg, 102 study, non-Hispanic or non-Latino subjects, read-out: geometric mean Cmax",260 ng/mL
same,concentration at 15 minutes,[1],5.75 ng/mL
same,concentration at 15 minutes,[2],1.16 ng/mL
same,concentration at 45 minutes,[1],121 ng/mL
same,concentration at 45 minutes,[2],72.6 ng/mL
same,AUC(0-inf),"25 mg, 102 study only, read-out: arithmetic mean AUC0-∞",4630 ng·h/mL
same,Cmax,"25 mg, 102 study only, read-out: arithmetic mean Cmax",349 ng/mL
same,AUC(0-inf),"25 mg, 102 study only, read-out: geometric mean AUC0-∞",4490 ng·h/mL
same,Cmax,"25 mg, 102 study only, read-out: geometric mean Cmax",341 ng/mL
same,AUC(0-inf),"25 mg, 102 study, 18-40 years, read-out: arithmetic mean AUC0-∞",4140 ng·h/mL
same,Cmax,"25 mg, 102 study, 18-40 years, read-out: arithmetic mean Cmax",366 ng/mL
same,AUC(0-inf),"25 mg, 102 study, 18-40 years, read-out: geometric mean AUC0-∞",4050 ng·h/mL
same,Cmax,"25 mg, 102 study, 18-40 years, read-out: geometric mean Cmax",356 ng/mL
same,AUC(0-inf),"25 mg, 102 study, 41-52 years, read-out: arithmetic mean AUC0-∞",4810 ng·h/mL
